What was measured:
[1] = molecular target: Megakaryocyte-associated tyrosine-protein kinase (Homo sapiens) (UniProt P42679); settings: Compound concentration 1000.0 nM
[2] = molecular target: STE20-like serine/threonine-protein kinase (Homo sapiens) (UniProt Q9H2G2); settings: Compound concentration 1000.0 nM
[3] = molecular target: Histamine H1 receptor (Homo sapiens) (UniProt P35367); test: H1 (h) Eurofins-Cerep binding assay; design: ligand concentration 1 nM; settings: filed as antagonist, Compound concentration 10.0 uM
[4] = molecular target: Sigma intracellular receptor 2 (Homo sapiens, UniProt Q5BJF2); settings: Compound concentration 10.0 uM
[5] = molecular target: Tyrosine-protein kinase Fer (Homo sapiens) (UniProt P16591); settings: Compound concentration 1000.0 nM
[6] = molecular target: Dual specificity mitogen-activated protein kinase kinase 3 (Homo sapiens) (UniProt P46734); settings: Compound concentration 1000.0 nM
[7] = molecular target: Atypical kinase COQ8A, mitochondrial (Homo sapiens) (UniProt Q8NI60); settings: Compound concentration 1000.0 nM
[8] = molecular target: T1, Alpha-2A adrenergic receptor (Homo sapiens) (UniProt P08913); test: Alpha2A (h) Eurofins-Cerep binding assay; design: ligand concentration 1 nM; settings: filed as antagonist, Compound concentration 10.0 uM
T1 sequence (whole entry): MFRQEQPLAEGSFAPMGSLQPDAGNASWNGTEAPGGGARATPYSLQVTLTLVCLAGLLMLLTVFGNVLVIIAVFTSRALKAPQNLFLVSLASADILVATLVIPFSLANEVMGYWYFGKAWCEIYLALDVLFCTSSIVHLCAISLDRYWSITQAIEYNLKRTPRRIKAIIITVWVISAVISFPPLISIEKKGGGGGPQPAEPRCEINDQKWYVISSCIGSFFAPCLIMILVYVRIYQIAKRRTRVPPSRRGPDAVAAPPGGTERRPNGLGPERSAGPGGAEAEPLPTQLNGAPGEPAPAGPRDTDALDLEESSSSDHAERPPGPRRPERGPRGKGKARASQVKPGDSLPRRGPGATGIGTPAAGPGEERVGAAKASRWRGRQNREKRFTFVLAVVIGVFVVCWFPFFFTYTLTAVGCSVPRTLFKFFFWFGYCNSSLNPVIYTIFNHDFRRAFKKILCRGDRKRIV

[9] = molecular target: Calcium/calmodulin-dependent protein kinase kinase 1 (Homo sapiens) (UniProt Q8N5S9); settings: Compound concentration 1000.0 nM
[10] = molecular target: Mast/stem cell growth factor receptor Kit (Homo sapiens) (UniProt P10721); settings: Compound concentration 1000.0 nM
Rattus norvegicus = species: Rattus norvegicus; test: SKCa channel Eurofins-Cerep binding assay; design: ligand concentration 0.007 nM; settings: filed as antagonist, Compound concentration 10.0 uM
[11] = molecular target: Dual specificity mitogen-activated protein kinase kinase 7 (Homo sapiens) (UniProt O14733); settings: Compound concentration 1000.0 nM
[12] = molecular target: Glycogen synthase kinase-3 alpha (Homo sapiens) (UniProt P49840); settings: Compound concentration 1000.0 nM
[13] = molecular target: Serine/threonine-protein kinase MARK1 (Homo sapiens) (UniProt Q9P0L2); settings: Compound concentration 1000.0 nM
[14] = molecular target: Serine/threonine-protein kinase Chk2 (Homo sapiens) (UniProt O96017); settings: Compound concentration 1000.0 nM
[15] = molecular target: Tyrosine-protein kinase Yes (Homo sapiens) (UniProt P07947); settings: Compound concentration 1000.0 nM
[16] = molecular target: Leucine-rich repeat serine/threonine-protein kinase 2 (Homo sapiens) (UniProt Q5S007); settings: Compound concentration 1000.0 nM
[17] = test system: Mast/stem cell growth factor receptor Kit (Homo sapiens), P10721 [D816H]; settings: Compound concentration 1000.0 nM
[18] = molecular target: Serine/threonine-protein kinase MARK2 (Homo sapiens) (UniProt Q7KZI7); settings: Compound concentration 1000.0 nM
[19] = molecular target: Wee1-like protein kinase (Homo sapiens) (UniProt P30291); settings: Compound concentration 1000.0 nM
[20] = molecular target: Androgen receptor (Homo sapiens) (UniProt P10275); test: AR (h) Eurofins-Cerep binding assay; design: ligand concentration 1 nM; settings: filed as agonist, Compound concentration 10.0 uM
[21] = molecular target: T2, Muscarinic acetylcholine receptor M5 (Homo sapiens) (UniProt P08912); test: M5 (h) Eurofins-Cerep binding assay; design: ligand concentration 0.3 nM; settings: filed as antagonist, Compound concentration 10.0 uM
T2 sequence (whole entry): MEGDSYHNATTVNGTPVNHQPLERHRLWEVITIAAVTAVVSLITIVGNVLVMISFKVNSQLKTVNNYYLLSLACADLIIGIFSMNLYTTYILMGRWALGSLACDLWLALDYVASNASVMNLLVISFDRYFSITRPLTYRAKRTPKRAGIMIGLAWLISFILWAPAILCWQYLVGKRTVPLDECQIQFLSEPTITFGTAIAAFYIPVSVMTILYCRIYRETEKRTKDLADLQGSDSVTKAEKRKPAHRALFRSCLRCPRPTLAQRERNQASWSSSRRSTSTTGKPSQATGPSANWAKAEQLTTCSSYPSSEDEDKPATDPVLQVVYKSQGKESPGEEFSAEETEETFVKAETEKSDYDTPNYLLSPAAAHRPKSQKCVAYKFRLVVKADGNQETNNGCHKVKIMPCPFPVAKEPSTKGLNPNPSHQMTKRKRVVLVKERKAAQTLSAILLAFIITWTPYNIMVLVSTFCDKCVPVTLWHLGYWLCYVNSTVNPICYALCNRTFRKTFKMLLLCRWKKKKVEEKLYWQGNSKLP

[22] = molecular target: Activin receptor type-1 (Homo sapiens) (UniProt Q04771); settings: Compound concentration 1000.0 nM
[23] = molecular target: Prostaglandin G/H synthase 1 (Homo sapiens) (UniProt P23219); test: COX1(h) Eurofins-Cerep enzyme and uptake assay; settings: Compound concentration 10.0 uM
[24] = molecular target: Delta-type opioid receptor (Homo sapiens) (UniProt P41143); settings: Compound concentration 10.0 uM
[25] = test system: Phosphatidylinositol 4,5-bisphosphate 3-kinase catalytic subunit alpha isoform (Homo sapiens), P42336 [I800L]; settings: Compound concentration 1000.0 nM
[26] = molecular target: Calcium/calmodulin-dependent protein kinase type II subunit alpha (Homo sapiens) (UniProt Q9UQM7); settings: Compound concentration 1000.0 nM
[27] = molecular target: Motilin receptor (Homo sapiens) (UniProt O43193); test: motilin (h Eurofins-Cerep binding assay; design: ligand concentration 0.05 nM; settings: filed as agonist, Compound concentration 10.0 uM
[28] = molecular target: Serine/threonine-protein kinase D3 (Homo sapiens) (UniProt O94806); settings: Compound concentration 1000.0 nM
[29] = test system: Proto-oncogene tyrosine-protein kinase receptor Ret (Homo sapiens), P07949 [M918T]; settings: Compound concentration 1000.0 nM
[30] = molecular target: Mitogen-activated protein kinase 14 (Homo sapiens) (UniProt Q16539); settings: Compound concentration 1000.0 nM
[31] = molecular target: MAP kinase-interacting serine/threonine-protein kinase 1 (Homo sapiens) (UniProt Q9BUB5); settings: Compound concentration 1000.0 nM

Chain of Tyrosine-protein kinase Fer (Homo sapiens) (P16591 whole entry, looked up): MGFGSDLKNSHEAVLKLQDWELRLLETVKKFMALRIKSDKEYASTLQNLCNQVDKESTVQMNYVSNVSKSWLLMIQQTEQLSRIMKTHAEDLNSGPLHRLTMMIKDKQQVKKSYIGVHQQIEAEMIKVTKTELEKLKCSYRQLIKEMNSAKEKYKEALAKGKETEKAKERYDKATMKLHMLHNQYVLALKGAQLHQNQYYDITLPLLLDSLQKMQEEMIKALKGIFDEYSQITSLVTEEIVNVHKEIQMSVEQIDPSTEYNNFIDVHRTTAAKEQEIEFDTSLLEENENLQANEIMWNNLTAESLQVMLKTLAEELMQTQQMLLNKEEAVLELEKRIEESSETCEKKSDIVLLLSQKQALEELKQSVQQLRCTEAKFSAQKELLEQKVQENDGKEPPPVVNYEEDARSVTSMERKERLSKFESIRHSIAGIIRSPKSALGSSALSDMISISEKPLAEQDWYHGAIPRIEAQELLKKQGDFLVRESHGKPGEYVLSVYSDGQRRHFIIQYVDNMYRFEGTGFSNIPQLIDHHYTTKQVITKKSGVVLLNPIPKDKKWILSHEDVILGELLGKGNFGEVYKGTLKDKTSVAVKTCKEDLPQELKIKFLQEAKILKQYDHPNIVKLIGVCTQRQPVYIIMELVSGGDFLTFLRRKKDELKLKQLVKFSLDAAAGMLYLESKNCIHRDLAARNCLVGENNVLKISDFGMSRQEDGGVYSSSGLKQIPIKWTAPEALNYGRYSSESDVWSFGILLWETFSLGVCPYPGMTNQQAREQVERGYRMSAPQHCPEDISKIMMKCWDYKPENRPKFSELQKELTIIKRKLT
Chain of Histamine H1 receptor (Homo sapiens) (P35367 whole entry): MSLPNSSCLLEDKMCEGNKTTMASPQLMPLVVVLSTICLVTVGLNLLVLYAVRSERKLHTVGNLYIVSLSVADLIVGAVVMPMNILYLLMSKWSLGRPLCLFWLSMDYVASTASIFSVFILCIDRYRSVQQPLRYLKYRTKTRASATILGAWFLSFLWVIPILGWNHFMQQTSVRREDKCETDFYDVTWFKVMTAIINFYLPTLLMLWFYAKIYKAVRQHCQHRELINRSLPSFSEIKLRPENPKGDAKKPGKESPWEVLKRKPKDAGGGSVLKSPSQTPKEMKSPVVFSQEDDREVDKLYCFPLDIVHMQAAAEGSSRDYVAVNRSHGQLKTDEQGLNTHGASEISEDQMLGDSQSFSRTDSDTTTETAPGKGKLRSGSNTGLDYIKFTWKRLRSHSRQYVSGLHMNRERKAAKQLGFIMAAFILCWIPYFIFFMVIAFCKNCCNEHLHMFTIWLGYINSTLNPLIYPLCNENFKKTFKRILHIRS
Chain of Serine/threonine-protein kinase MARK1 (Homo sapiens) (Q9P0L2 whole entry, looked up): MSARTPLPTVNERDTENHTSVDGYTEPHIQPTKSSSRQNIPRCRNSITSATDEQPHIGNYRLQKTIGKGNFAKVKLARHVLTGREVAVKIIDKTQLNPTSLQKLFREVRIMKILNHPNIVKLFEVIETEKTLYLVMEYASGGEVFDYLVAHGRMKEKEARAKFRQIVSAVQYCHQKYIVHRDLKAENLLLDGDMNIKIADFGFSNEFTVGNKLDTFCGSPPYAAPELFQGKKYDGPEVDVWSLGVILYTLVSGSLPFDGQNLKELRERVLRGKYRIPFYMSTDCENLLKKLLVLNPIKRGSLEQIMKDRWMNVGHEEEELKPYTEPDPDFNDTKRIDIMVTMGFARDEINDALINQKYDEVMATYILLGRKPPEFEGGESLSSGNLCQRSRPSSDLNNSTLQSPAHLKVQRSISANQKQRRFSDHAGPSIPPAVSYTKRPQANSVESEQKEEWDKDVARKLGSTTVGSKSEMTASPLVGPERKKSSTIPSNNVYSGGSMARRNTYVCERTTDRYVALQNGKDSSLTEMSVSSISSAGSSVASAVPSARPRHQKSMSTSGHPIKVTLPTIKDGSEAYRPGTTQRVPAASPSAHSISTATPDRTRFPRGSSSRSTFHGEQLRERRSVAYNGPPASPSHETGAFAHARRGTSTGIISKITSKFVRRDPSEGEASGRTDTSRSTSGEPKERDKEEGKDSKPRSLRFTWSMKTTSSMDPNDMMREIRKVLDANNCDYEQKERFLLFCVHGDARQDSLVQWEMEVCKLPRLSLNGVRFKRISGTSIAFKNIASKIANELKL
Chain of Androgen receptor (Homo sapiens) (P10275 whole entry): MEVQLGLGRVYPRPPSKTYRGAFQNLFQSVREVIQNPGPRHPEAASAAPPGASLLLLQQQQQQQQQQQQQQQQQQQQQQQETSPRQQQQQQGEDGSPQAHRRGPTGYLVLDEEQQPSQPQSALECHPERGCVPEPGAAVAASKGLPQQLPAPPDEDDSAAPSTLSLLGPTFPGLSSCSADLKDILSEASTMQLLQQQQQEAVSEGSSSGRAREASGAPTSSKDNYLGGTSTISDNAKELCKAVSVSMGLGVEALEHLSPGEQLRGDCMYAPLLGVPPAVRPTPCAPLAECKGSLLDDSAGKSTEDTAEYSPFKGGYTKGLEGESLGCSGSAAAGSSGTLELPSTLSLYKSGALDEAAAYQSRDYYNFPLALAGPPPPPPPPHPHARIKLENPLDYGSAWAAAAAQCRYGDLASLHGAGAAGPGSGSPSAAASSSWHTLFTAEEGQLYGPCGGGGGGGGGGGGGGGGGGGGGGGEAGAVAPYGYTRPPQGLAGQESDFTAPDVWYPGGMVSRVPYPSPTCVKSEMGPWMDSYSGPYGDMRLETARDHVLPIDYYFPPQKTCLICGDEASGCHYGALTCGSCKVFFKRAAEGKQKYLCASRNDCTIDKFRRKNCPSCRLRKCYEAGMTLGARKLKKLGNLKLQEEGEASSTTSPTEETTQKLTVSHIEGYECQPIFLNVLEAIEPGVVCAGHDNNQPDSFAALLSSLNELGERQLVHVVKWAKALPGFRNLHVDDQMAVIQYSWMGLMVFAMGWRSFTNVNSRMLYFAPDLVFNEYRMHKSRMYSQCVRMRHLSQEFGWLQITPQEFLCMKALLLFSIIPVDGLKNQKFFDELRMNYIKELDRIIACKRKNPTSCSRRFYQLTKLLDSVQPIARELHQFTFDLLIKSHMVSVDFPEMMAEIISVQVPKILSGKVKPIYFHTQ
Chain of Sigma intracellular receptor 2 (Q5BJF2 whole entry): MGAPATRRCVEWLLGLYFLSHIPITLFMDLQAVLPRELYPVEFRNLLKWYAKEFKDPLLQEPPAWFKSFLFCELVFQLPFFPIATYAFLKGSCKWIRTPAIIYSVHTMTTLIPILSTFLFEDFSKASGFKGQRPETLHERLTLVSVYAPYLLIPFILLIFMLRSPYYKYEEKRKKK
Chain of Serine/threonine-protein kinase Chk2 (Homo sapiens) (O96017 whole entry): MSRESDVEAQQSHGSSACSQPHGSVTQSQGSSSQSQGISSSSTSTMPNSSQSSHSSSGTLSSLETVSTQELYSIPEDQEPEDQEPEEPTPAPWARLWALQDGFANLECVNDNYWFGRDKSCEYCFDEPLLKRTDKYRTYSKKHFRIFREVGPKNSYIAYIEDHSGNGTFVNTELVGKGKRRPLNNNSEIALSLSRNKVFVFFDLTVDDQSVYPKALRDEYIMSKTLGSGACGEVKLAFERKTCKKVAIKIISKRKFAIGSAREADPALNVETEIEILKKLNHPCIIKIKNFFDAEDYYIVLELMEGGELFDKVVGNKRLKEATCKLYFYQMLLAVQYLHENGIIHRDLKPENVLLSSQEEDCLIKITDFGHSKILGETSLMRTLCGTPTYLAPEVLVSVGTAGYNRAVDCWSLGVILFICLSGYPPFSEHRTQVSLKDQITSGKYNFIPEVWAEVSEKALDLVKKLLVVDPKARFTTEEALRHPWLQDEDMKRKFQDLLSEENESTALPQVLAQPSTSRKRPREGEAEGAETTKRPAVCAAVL
Chain of Prostaglandin G/H synthase 1 (Homo sapiens) (P23219 whole entry): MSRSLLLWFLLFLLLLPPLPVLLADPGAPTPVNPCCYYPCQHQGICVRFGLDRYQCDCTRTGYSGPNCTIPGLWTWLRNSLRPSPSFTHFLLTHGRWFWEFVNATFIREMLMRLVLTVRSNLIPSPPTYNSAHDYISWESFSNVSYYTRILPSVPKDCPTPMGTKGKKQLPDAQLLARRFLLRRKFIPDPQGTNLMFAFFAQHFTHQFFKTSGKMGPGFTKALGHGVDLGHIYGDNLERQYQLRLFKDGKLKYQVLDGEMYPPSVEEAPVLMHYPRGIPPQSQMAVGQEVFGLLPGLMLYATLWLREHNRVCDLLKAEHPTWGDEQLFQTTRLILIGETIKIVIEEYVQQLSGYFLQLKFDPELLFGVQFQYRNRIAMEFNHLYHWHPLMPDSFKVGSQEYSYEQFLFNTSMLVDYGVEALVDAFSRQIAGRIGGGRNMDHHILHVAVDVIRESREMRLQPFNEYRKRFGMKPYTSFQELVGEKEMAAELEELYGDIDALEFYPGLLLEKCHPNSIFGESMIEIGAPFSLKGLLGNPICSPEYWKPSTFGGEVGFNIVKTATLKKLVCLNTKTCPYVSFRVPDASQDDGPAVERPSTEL
Chain of Activin receptor type-1 (Homo sapiens) (Q04771 whole entry): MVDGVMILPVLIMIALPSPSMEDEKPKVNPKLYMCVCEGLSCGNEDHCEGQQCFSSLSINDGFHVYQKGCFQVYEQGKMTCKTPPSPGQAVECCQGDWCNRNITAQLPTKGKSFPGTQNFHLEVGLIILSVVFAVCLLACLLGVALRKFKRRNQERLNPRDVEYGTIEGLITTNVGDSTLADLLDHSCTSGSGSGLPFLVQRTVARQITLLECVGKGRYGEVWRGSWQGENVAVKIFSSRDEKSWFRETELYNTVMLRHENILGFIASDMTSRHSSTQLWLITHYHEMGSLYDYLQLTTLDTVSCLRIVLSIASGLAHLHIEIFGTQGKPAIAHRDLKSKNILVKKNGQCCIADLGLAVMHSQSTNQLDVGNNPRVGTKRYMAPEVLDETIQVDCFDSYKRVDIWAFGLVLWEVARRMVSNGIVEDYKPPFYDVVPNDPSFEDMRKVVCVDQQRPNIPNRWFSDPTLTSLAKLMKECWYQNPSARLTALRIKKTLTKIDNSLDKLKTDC

## O=C(NS(=O)(=O)c1ccc(NCC2CCOCC2)c([N+](=O)[O-])c1)c1ccc(N2CCN(Cc3ccc(C(F)(F)F)cc3-c3ccc(Cl)cc3)CC2)cc1Oc1cnc2[nH]ccc2c1 [A-1210227]
[1]
  residual activity: 100%
[2]
  residual activity: 100%
[3]
  % Inhibition of Control Specific Binding (Mean n=2): 11.2%
[4]
  inhibition: 54.3%
[5]
  residual activity: 94%
[6]
  residual activity: 80%
[7]
  residual activity: 100%
[8]
  % Inhibition of Control Specific Binding (Mean n=2): -5.2%
[9]
  residual activity: 92%
[10]
  residual activity: 100%
Rattus norvegicus
  % Inhibition of Control Specific Binding (Mean n=2): -4.8%
[11]
  residual activity: 100%
[12]
  residual activity: 100%
[13]
  residual activity: 81%
[14]
  residual activity: 95%
[15]
  residual activity: 100%
[16]
  residual activity: 100%
[17]
  residual activity: 76%
[18]
  residual activity: 100%
[19]
  residual activity: 100%
[20]
  % Inhibition of Control Specific Binding (Mean n=2): -0.7%
[21]
  % Inhibition of Control Specific Binding (Mean n=2): -1.6%
[22]
  residual activity: 89%
[23]
  % Inhibition of Control Values (Mean n=2): 3.7%
[24]
  inhibition: -3.92%
[25]
  residual activity: 100%
[26]
  residual activity: 87%
[27]
  % Inhibition of Control Specific Binding (Mean n=2): -13%
[28]
  residual activity: 100%
[29]
  residual activity: 100%
[30]
  residual activity: 97%
[31]
  residual activity: 99%

## CO[C@H]1CC[C@H](CNc2ccc(S(=O)(=O)NC(=O)c3ccc(N4CCN(CC5=C(c6ccc(Cl)cc6)CC(C)(C)CC5)CC4)cc3Oc3cnc4[nH]ccc4c3)cc2[N+](=O)[O-])CC1 [A-1211212]
[1]
  residual activity: 89%
[2]
  residual activity: 67%
[3]
  % Inhibition of Control Specific Binding (Mean n=2): -2.2%
[4]
  inhibition: 60.7%
[5]
  residual activity: 67%
[6]
  residual activity: 92%
[7]
  residual activity: 99%
[8]
  % Inhibition of Control Specific Binding (Mean n=2): -11.2%
[9]
  residual activity: 83%
[10]
  residual activity: 91%
Rattus norvegicus
  % Inhibition of Control Specific Binding (Mean n=2): -12.6%
[11]
  residual activity: 100%
[12]
  residual activity: 100%
[13]
  residual activity: 74%
[14]
  residual activity: 89%
[15]
  residual activity: 88%
[16]
  residual activity: 100%
[17]
  residual activity: 76%
[18]
  residual activity: 100%
[19]
  residual activity: 100%
[20]
  % Inhibition of Control Specific Binding (Mean n=2): -8.6%
[21]
  % Inhibition of Control Specific Binding (Mean n=2): 8.6%
[22]
  residual activity: 84%
[23]
  % Inhibition of Control Values (Mean n=2): 6.9%
[24]
  inhibition: 5.68%
[25]
  residual activity: 98%
[26]
  residual activity: 68%
[27]
  % Inhibition of Control Specific Binding (Mean n=2): -20.5%
[28]
  residual activity: 100%
[29]
  residual activity: 85%
[30]
  residual activity: 83%
[31]
  residual activity: 90%
